According to US20240124529A1, “ANTIVIRAL […]-[…]-CoV-2 PEPTIDES AND USES THEREOF” (Dana-Farber Cancer Institute, Inc., priority 2020, published 2024):
Bridge positions count the residues as written; N and C are the ends. Square brackets hold non-standard residues; d marks the D form. Peptide text beside a SMILES is read from it. S5 = C=CCCC[C@](C)(N)C(=O)O; Nle = CCCC[C@H](N)C(=O)O

Legend:
Proteinase K = Proteinase K (Parengyodontium album, UniProt P06873); experiment: in vitro; details: pH 7.4
[1] = format: physicochemical; details: 25-50 μM peptide in 50 mM potassium phosphate (pH 7.5) or water

Proteinase K, sequence (P06873 106-384): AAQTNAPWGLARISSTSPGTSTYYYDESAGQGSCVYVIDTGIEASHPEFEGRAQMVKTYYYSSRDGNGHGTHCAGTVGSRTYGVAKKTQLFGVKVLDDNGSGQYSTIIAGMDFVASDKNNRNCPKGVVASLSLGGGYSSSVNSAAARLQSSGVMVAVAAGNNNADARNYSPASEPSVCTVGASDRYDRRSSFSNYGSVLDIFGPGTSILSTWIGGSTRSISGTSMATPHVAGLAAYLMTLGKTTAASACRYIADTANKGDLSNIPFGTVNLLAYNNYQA

Row | Compound | IC50 (SARS-CoV-2) [µM] | half-life (Proteinase K) [min] | alpha-helical structure in solution by circular dichroism [1]
1 | CC[C@H](C)[C@H](NC(C)=O)C(=O)N[C@@H](CCC(N)=O)C(=O)N[C@@]1(C)CCCC=CCCC[C@@](C)(C(=O)N[C@@H](CC(C)C)C(=O)N[C@@H](CC(N)=O)C(=O)N[C@@H](CCC(=O)O)C(=O)N[C@H](C(=O)N[C@@H](C)C(=O)N[C@@H](CCCCN)C(=O)N[C@@]2(C)CCCC=CCCC[C@@](C)(C(=O)N[C@@H](CC(C)C)C(N)=O)NC(=O)[C@H](CCC(=O)O)NC(=O)[C@H](CC(N)=O)NC(=O)[C@H](CC(C)C)NC2=O)C(C)C)NC(=O)[C@H](CC(=O)O)NC(=O)[C@H]([C@@H](C)CC)NC(=O)[C@H](CCC(=O)O)NC1=O [SEQ ID NO:52, IQX1EIDX2LNEVAKX3LNEX4L] (Ac-IQ[S5]EID[S5]LNEVAK[S5]LNE[S5]L-NH2; staple 3-7, 14-18) | < 6 | > 1000 | –
2 | SLDQINVTFLDLEYEMKKLEEAIKKLEESYIDLKEL [SEQ ID NO:110, reference compound] | – | – | little to no alpha-helical structure
3 | CCCC[C@@H]1NC(=O)[C@H](CCC(=O)O)NC(=O)[C@H](Cc2ccc(O)cc2)NC(=O)[C@@](C)(NC(=O)[C@H](CC(C)C)NC(=O)[C@H](CC(=O)O)NC(=O)[C@H](CC(C)C)NC(=O)[C@H](Cc2ccccc2)NC(=O)[C@@H](NC(=O)[C@@H](NC(=O)[C@H](CC(N)=O)NC(=O)[C@@H](NC(=O)[C@H](CCC(N)=O)NC(=O)[C@H](CC(=O)O)NC(=O)[C@H](CC(C)C)NC(=O)[C@H](CO)NC(C)=O)[C@@H](C)CC)C(C)C)[C@@H](C)O)CCCC=CCCC[C@@](C)(C(=O)N[C@@H](CCCCN)C(=O)N[C@@H](CC(C)C)C(=O)N[C@@H](CCC(=O)O)C(=O)N[C@@H](CCC(=O)O)C(=O)N[C@@H](C)C(=O)N[C@H](C(=O)N[C@@]2(C)CCCC=CCCC[C@@](C)(C(=O)N[C@@H](CO)C(=O)N[C@@H](Cc3ccc(O)cc3)C(=O)N[C@H](C(=O)N[C@@H](CC(=O)O)C(=O)N[C@@H](CC(C)C)C(=O)N[C@@H](CCCCN)C(=O)N[C@@H](CCC(=O)O)C(N)=O)[C@@H](C)CC)NC(=O)[C@H](CCC(=O)O)NC(=O)[C@H](CC(C)C)NC(=O)[C@H](CCCCN)NC2=O)[C@@H](C)CC)NC1=O [SEQ ID NO:177, SLDQINVTFLDLX1YEBX2KLEEAIX3KLEX4SYIDLKE] (Ac-SLDQINVTFLDL[S5]YE[Nle][S5]KLEEAI[S5]KLE[S5]SYIDLKE-NH2; staple 13-17, 24-28) | – | 840 | –
4 | CC[C@H](C)[C@H](NC(C)=O)C(=O)N[C@@H](CCC(N)=O)C(=O)N[C@@H](CCCCN)C(=O)N[C@@H](CCC(=O)O)C(=O)N[C@H](C(=O)N[C@@H](CC(=O)O)C(=O)N[C@@H](CCCNC(=N)N)C(=O)N[C@@H](CC(C)C)C(=O)N[C@@H](CC(N)=O)C(=O)N[C@@H](CCC(=O)O)C(=O)N[C@H](C(=O)N[C@@H](C)C(=O)N[C@@H](CCCCN)C(=O)N[C@@H](CC(N)=O)C(=O)N[C@@H](CC(C)C)C(=O)N[C@@H](CC(N)=O)C(=O)N[C@@H](CCC(=O)O)C(=O)N[C@@H](CO)C(=O)N[C@@H](CC(C)C)C(N)=O)C(C)C)[C@@H](C)CC [SEQ ID NO:10, reference compound] | – | 35 | –
5 | CC[C@H](C)[C@H](NC(=O)[C@H](Cc1ccc(O)cc1)NC(=O)[C@H](CCC(N)=O)NC(=O)[C@H](CCC(=O)O)NC(=O)[C@H](Cc1ccc(O)cc1)NC(=O)[C@H](CCCCN)NC(=O)CNC(=O)[C@H](CC(C)C)NC(=O)[C@H](CCC(=O)O)NC(=O)[C@H](CCC(N)=O)NC(=O)[C@H](CC(C)C)NC(=O)[C@H](CC(=O)O)NC(=O)[C@@H](NC(=O)[C@H](CC(C)C)NC(=O)[C@H](CO)NC(=O)[C@]1(C)CCCC=CCCC[C@](C)(NC(=O)[C@H](C)NC(=O)[C@@H](NC(=O)[C@H](CCC(=O)O)NC(=O)[C@H](CC(N)=O)NC(=O)[C@H](CC(C)C)NC(=O)[C@]2(C)CCCC=CCCC[C@](C)(NC(=O)[C@H](CCC(N)=O)NC(=O)[C@@H](NC(=O)[C@H](CC(N)=O)NC(=O)[C@@H](NC(=O)[C@@H](NC(=O)[C@H](CO)NC(=O)[C@H](C)NC(=O)[C@H](CC(N)=O)NC(=O)[C@@H](NC(=O)CNC(=O)[C@H](CO)NC(=O)[C@@H](NC(C)=O)[C@@H](C)CC)[C@@H](C)CC)C(C)C)C(C)C)[C@@H](C)CC)C(=O)N[C@@H](CCC(=O)O)C(=O)N[C@@H]([C@@H](C)CC)C(=O)N[C@@H](CC(=O)O)C(=O)N2)C(C)C)C(=O)N[C@@H](CC(N)=O)C(=O)N[C@@H](CC(C)C)C(=O)N[C@@H](CC(N)=O)C(=O)N1)[C@@H](C)CC)C(N)=O [SEQ ID NO:158] | – | 33 | –
